In patent publication US8354419B2, “Benzimidazole analogues for the treatment or prevention of flavivirus infections” (Vertex Pharmaceuticals Incorporated, priority 2009, dated 2013):

The compounds below were run on HCV (Ib) RNA replication (assay: Cell-based luciferase reporter HCV (1b) RNA replication assay (replicon cell lines Huh-7 5.2 and ET)). Details: Hepatitis C virus, Huh-7, 96 h, HCV 1b genotype replicon, luciferase readout, 4 days incubation; read-out: EC50_1b.
Set-up: species or system Hepatitis C virus
Source text: Cell-Based Luciferase Reporter HCV (Ib) RNA Replication Assay Cell Culture
Replicon cell lines Huh-7, 5.2 and ET which are derived from the Huh-7 hepatocarcinoma cell line are maintained in culture as generally described in Krieger, N; Lohmann, V; Bartenschlager, R. Enhancement of hepatitis C virus RNA replication by cell culture-adaptive mutations. J. Virol. 2001, 75, 4614-4624. The Huh-7, 5.2 cells contain the highly cell culture-adapted replicon I389luc-ubi-neo/NS3-3′/5.1 construct that carries, in addition to the neomycin gene, an integrated copy to the firefly luciferase gene (Krieger, N; Lohmann, V; Bartenschlager, R. Enhancement of hepatitis C virus RNA replication by cell culture-adaptive mutations. J. Virol. 2001, 75, 4614-4624). This cell line allows measurement of HCV RNA replication and translation by measuring luciferase activity. It has been previously shown that the luciferase activity tightly follows the replicon RNA level in these cells (Krieger, N; Lohmann, V; Bartenschlager, R. Enhancement of hepatitis C virus RNA replication by cell culture-adaptive mutations. J. Virol. 2001, 75, 4614-4624). The Huh-7, ET cell line has the same features as those mentioned for Huh-7, 5.2 cell line, except that ET cells are more robust and contain an adaptative mutation in the HCV NS4B gene instead of NS5A. Both cell lines are maintained in cultures at a sub-confluent level (<85%) as the level of replicon RNA is highest in actively proliferating cells. The culture media used for cell passaging consist of DMEM (Gibco BRL Laboratories, Mississauga, ON, Canada) supplemented with 10% foetal bovine serum with 1% penicillin/streptomycin, 1% glutamine, 1% sodium pyruvate, 1% non-essential amino acids, and 180 ug/ml of G418 final concentration. Cells are incubated at 37° C., in an atmosphere of 5% CO2 and passaged twice a week to maintain sub-confluence.
Approximately 3000 viable Huh-7, 5.2 or ET cells (100 μl) are plated per well in a white opaque 96-well microtiter plate. The cell culture media used for the assay is the same as described above except that it contains no G418 and no phenol red. After an incubation period of 3-4 hours at 37° C. in a 5% CO2 incubator, compounds (100 μl) are added at various concentrations. Cells are then further incubated for 4 days at 37° C. in a 5% CO2 incubator. Thereafter, the culture media is removed and cells are lysed by the addition of 95 μL of the luciferase buffer (luciferin substrate in buffered detergent). Cell lysates are incubated at room temperature and protected from direct light for at least 10 minutes. Plates are read for luciferase counts using a luminometer (Wallac MicroBeta Trilux, Perkin ELmer™, MA, USA).
The 50% inhibitory concentrations (IC50s) for inhibitory effect are determined from dose response curves using eleven concentrations per compound in duplicate. Curves are fitted to data points using nonlinear regression analysis, and IC50s are interpolated from the resulting curve using GraphPad Prism software, version 2.0 (GraphPad Software Inc., San Diego, Calif., USA).
Table 2 show compounds representative of the present invention and the EC50 values against the HCV 1b genotype.
`COC(=O)N[C@@H](C(=O)N1CCC[C@H]1c1nc2cc(C#Cc3ccc4[nH]c([C@@H]5CCCN5C(=O)[C@H](NC(=O)OC)c5ccccc5)nc4c3)ccc2[nH]1)c1ccccc1` [Compound 33, {(R)-2-[(S)-2-(5-{2-[(S)-1-((R)-2-Methoxycarbonylamino-2-phenyl-acetyl)-pyrrolidin-2-yl]-1H-benzoimidazol-5-ylethynyl}-1H-benzoimidazol-2-yl)-pyrrolidin-1-yl]-2-oxo-1-phenyl-ethyl}-carbamic acid methylester] showed an EC50 of no more than 5 nM. `COC(=O)N[C@H](C(=O)N1CCC[C@H]1c1nc2cc(C#Cc3ccc4[nH]c([C@@H]5CCCN5C(=O)OC(C)(C)C)nc4c3)ccc2[nH]1)C(C)C` [Compound 34, (S)-2-(5-{2-[(S)-1-((S)-2-Methoxycarbonylamino-3-methyl-butyryl)-pyrrolidin-2-yl]-1H-benzoimidazol-5-ylethynyl}-1H-benzoimidazol-2-yl)-pyrrolidine-1-carboxylic acid tert-butyl ester] gave an EC50 of 5 to 5000 nM. `COC(=O)N[C@H](C(=O)N1CCC[C@H]1c1nc2cc(C#Cc3ccc4[nH]c([C@@H]5CCCN5C(=O)[C@@H](NC(=O)OC)C(C)(C)C)nc4c3)ccc2[nH]1)C(C)C` [Compound 36, {(S)-1-[(S)-2-(5-{2-[(S)-1-((S)-2-Methoxycarbonylamino-3-methyl-butyryl)-pyrrolidin-2-yl]-1H-benzoimidazol-5-ylethynyl}-1H-benzoimidazol-2-yl)-pyrrolidine-1-carbonyl]-2,2-dimethyl-propyl}-carbamic acid methyl ester] was tested, and the EC50 was no more than 5 nM. `COC(=O)N[C@H](C(=O)N1CCC[C@H]1c1nc2cc(C#Cc3ccc4[nH]c([C@@H]5CCCN5C(=O)[C@@H](NC(=O)OC)C(C)C)nc4c3)ccc2[nH]1)C(C)C` [Compound 37, {(S)-1-[(S)-2-(5-{2-[(S)-1-((S)-2-Methoxycarbonylamino-3-methyl-butyryl)-pyrrolidin-2-yl]-1H-benzoimidazol-5-ylethynyl}-1H-benzoimidazol-2-yl)-pyrrolidine-1-carbonyl]-2-methyl-propyl}-carbamic acid methyl ester] was tested, and the EC50 was no more than 5 nM. `COC(=O)N[C@H](C(=O)N1CCC[C@H]1c1nc2cc(C#Cc3ccc4[nH]c([C@@H]5CCCN5C(=O)[C@H]5CCCO5)nc4c3)ccc2[nH]1)C(C)C` [Compound 38, {(S)-2-Methyl-1-[(S)-2-(5-{2-[(S)-1-((R)-tetrahydro-furan-2-carbonyl)-pyrrolidin-2-yl]-1H-benzoimidazol-5-ylethynyl}-1H-benzoimidazol-2-yl)-pyrrolidine-1-carbonyl]-propyl}-carbamic acid methyl ester] showed an EC50 of no more than 5 nM. In the case of `COC(=O)N[C@H](C(=O)N1CCC[C@H]1c1nc2cc(C#Cc3ccc4[nH]c([C@@H]5CCCN5C(=O)[C@H](NC(=O)OC)c5ccccc5)nc4c3)ccc2[nH]1)C(C)C` [Compound 39, {(S)-1-[(S)-2-(5-{2-[(S)-1-((R)-2-Methoxycarbonylamino-2-phenyl-acetyl)-pyrrolidin-2-yl]-1H-benzoimidazol-5-ylethynyl}-1H-benzoimidazol-2-yl)-pyrrolidine-1-carbonyl]-2-methyl-propyl}-carbamic acid methyl ester], the EC50 is reported as no more than 5 nM. `O=C(OCc1ccccc1)N1CCCC[C@H]1c1nc2cc(C#C/C=C/c3ccc4[nH]c([C@@H]5CCCCN5C(=O)OCc5ccccc5)nc4c3)ccc2[nH]1` [Compound 40, (S)-2-(5-{(E)-4-[2-((S)-1-Benzyloxycarbonyl-piperidin-2-yl)-1H-benzoimidazol-5-yl]-but-1-en-3-ynyl}-1H-benzoimidazol-2-yl)-piperidine-1-carboxylic acid benzyl ester] was tested, and the EC50 was 5 to 5000 nM. Compound `O=C(OCc1ccccc1)N1CCCC[C@H]1c1nc2cc(C#CC#Cc3ccc4[nH]c([C@@H]5CCCCN5C(=O)OCc5ccccc5)nc4c3)ccc2[nH]1` [Compound 41, (S)-2-(5-{4-[2-((S)-1-Benzyloxycarbonyl-piperidin-2-yl)-1H-benzoimidazol-5-yl]-buta-1,3-diynyl}-1H-benzoimidazol-2-yl)-piperidine-1-carboxylic acid benzyl ester] has an EC50 of 5 to 5000 nM. Compound `COC(=O)N[C@H](C(=O)N1CCC[C@H]1c1nc2cc(-c3cc(F)c(-c4ccc5nc([C@@H]6CCCN6C(=O)[C@@H](NC(=O)OC)C(C)C)[nH]c5c4)cc3F)ccc2[nH]1)C(C)C` [Compound 42, ((S)-1-{(S)-2-[5-(4-{2-[(S)-1-((S)-2-Methoxycarbonylamino-3-methyl-butyryl)-pyrrolidin-2-yl]-1H-benzoimidazol-5-yl}-2,5-difluoro-phenyl)-1H-benzoimidazol-2-yl]-pyrrolidine-1-carbonyl}-2-methyl-propyl)-carbamicacid methyl ester] has an EC50 of no more than 5 nM. In the case of `COC(=O)N[C@H](C(=O)N1CCC[C@H]1c1nc2cc(-c3cnc(-c4ccc5[nH]c([C@@H]6CCCN6C(=O)[C@@H](NC(=O)OC)C(C)C)nc5c4)c(C)c3)ccc2[nH]1)C(C)C` [Compound 43, Methyl N-[(1S)-1-[(2S)-2-[5-[5-[2-[(2S)-1-[(2S)-2-(methoxycarbonylamino)-3-methyl-butanoyl]pyrrolidin-2-yl]-1H-benzimidazol-5-yl]-3-methyl-2-pyridyl]-1H-benzimidazol-2-yl]pyrrolidine-1-carbonyl]-2-methyl-propyl]carbamate], the EC50 is reported as no more than 5 nM. For `COC(=O)N[C@H](C(=O)N1CCC[C@H]1c1nc2cc(-c3cscc3-c3ccc4[nH]c([C@@H]5CCCN5C(=O)[C@@H](NC(=O)OC)C(C)C)nc4c3)ccc2[nH]1)C(C)C` [Compound 44, Dimethyl-(2S,2′S)-1,1′-((2S,2′S)-2,2′-(5,5′-(thiophene-3,4-diyl)bis(1H-benzo[d]imidazole-5,2-diyl))bis(pyrrolidine-2,1-diyl))bis(3-methyl-1-oxobutane-2,1-diyl)dicarbamate], the EC50 was no more than 5 nM. `CC(C)[C@H](NC(=O)O[C@H]1CCOC1)C(=O)N1CCC[C@H]1c1nc2cc(-c3cscc3-c3ccc4[nH]c([C@@H]5CCCN5C(=O)[C@@H](NC(=O)O[C@H]5CCOC5)C(C)C)nc4c3)ccc2[nH]1` [Compound 45, bis((S)-tetrahydrofuran-3-yl)-(2S,2′S)-1,1′-((2S,2′S)-2,2′-(5,5′-(thiophene-3,4-diyl)bis(1H-benzo[d]imidazole-5,2-diyl))bis(pyrrolidine-2,1-diyl))bis(3-methyl-1-oxobutane-2,1-diyl)dicarbamate] gave an EC50 of 5 to 5000 nM. Work on `CC(C)[C@H](NC(=O)O[C@H]1CCOC1)C(=O)N1CCC[C@H]1c1nc2cc(-c3ccsc3-c3ccc4[nH]c([C@@H]5CCCN5C(=O)[C@@H](NC(=O)O[C@H]5CCOC5)C(C)C)nc4c3)ccc2[nH]1` [Compound 47, bis((S)-tetrahydrofuran-3-yl)-(2S,2′S)-1,1′-((2S,2′S)-2,2′-(5,5′-(thiophene-2,3-diyl)bis(1H-benzo[d]imidazole-5,2-diyl))bis(pyrrolidine-2,1-diyl))bis(3-methyl-1-oxobutane-2,1-diyl)dicarbamate] yielded an EC50 of 5 to 5000 nM. In the case of `CC(C)(C)OC(=O)N1CCCC[C@H]1c1nc2cc(C#Cc3ccc4nc([C@@H]5CSCN5C(=O)OC(C)(C)C)[nH]c4c3)ccc2[nH]1` [Compound 48], the EC50 is reported as greater than 5000 nM. `O=C(OCc1ccccc1)N1CCCC[C@H]1c1nc2cc(C#Cc3ccc4nc([C@@H]5CCCN5C(=O)OCc5ccccc5)[nH]c4c3)ccc2[nH]1` [Compound 49] was tested, and the EC50 was 5 to 5000 nM. `COC(=O)N[C@@H](C)C(=O)N1CCC[C@H]1c1nc2cc(C#Cc3ccc4[nH]c([C@@H]5CCCN5C(=O)[C@H](C)NC(=O)OC)nc4c3)ccc2[nH]1` [Compound 50] showed an EC50 of no more than 5 nM. For `O=C(NC1CC1)c1nc2cc(C#Cc3ccc4[nH]c([C@@H]5CCCN5C(=O)OCc5ccccc5)nc4c3)ccc2[nH]1` [Compound 51], the EC50 was 5 to 5000 nM. `COC(=O)N[C@@H](C)C(=O)N1CCC[C@H]1c1nc2cc(C#Cc3ccc4[nH]c([C@@H]5CCCCN5C(=O)OCc5ccccc5)nc4c3)ccc2[nH]1` [Compound 52] was tested, and the EC50 was no more than 5 nM. `COC(=O)N[C@@H](C)C(=O)N1CCC[C@H]1c1nc2cc(C#Cc3ccc4[nH]c([C@@H]5CCCN5C(=O)[C@@H](NC(=O)OC)C(C)C)nc4c3)ccc2[nH]1` [Compound 53] was tested, and the EC50 was no more than 5 nM. With `COC(=O)N[C@@H](C)C(=O)N1CCC[C@H]1c1nc2cc(C#Cc3ccc4[nH]c([C@@H]5CCCN5C(=O)[C@@H](NC(=O)OC)C(C)(C)C)nc4c3)ccc2[nH]1` [Compound 54] the EC50 was no more than 5 nM.
